Values quoted from earlier work in patent US20250302774A1, “LISDEX[…] OROD[…] AND PROCESS FOR PREPARATION THEREOF” (ATHENA PHARM[…], priority 2024, published 2025).
Where two headings read alike, the source gives them in different places.

How the values were obtained:
[1] = active substance, exposed to moisture, dimethanesulfonate

## CS(=O)(=O)O.CS(=O)(=O)O.C[C@@H](Cc1ccccc1)NC(=O)[C@@H](N)CCCCN [Lisdexamfetamine dimesylate, (2S)-2,6-diamino-N-[(1S)-1-methyl-2-phenylethyl]-hexanamide, dimethanesulfonate]
[1]
  hygroscopic / deliquescent nature: highly deliquescent
[1]; listed as lisdexamfetamine dimesylate
  hygroscopic / deliquescent nature: hygroscopic
In acetone
  solubility: very slightly soluble
In chloroform
  solubility: very slightly soluble
In ethanol
  solubility: soluble
In methanol
  solubility: freely soluble
In tetrahydrofuran
  solubility: practically insoluble
In toluene
  solubility: very slightly soluble
